Results published in PubChem BioAssay (NCI).
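48-hour exposure; five concentrations; linearly interpolated endpoints. The concentration for full growth arrest is given as TGI.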

Columns and labels:
Assay in all cases: NCI-60 cell line screen, 48 h
DU-145 prostate = system: DU-145 prostate
UACC-62 melanoma = system: UACC-62 melanoma
MDA-MB-435 = system: MDA-MB-435
RPMI-8226 leukemia = system: RPMI-8226 leukemia
SK-MEL-28 melanoma = system: SK-MEL-28 melanoma
TK-10 renal = system: TK-10 renal
MALME-3M melanoma = system: MALME-3M melanoma
SK-OV-3 ovarian = system: SK-OV-3 ovarian
SNB-19 CNS = system: SNB-19 CNS
SR leukemia = system: SR leukemia
SW-620 colon = system: SW-620 colon
PC-3 prostate = system: PC-3 prostate
MDA-N = system: MDA-N
K-562 leukemia = system: K-562 leukemia
SF-539 CNS = system: SF-539 CNS
HOP-92 NSCLC = system: HOP-92 NSCLC
IGROV1 ovarian = system: IGROV1 ovarian
EKVX NSCLC = system: EKVX NSCLC
NCI-H226 lung = system: NCI-H226 lung
HT29 colon = system: HT29 colon

Row | SMILES | TGI (DU-145 prostate) [µM] | TGI (UACC-62 melanoma) [µM] | TGI (MDA-MB-435) [µM] | TGI (RPMI-8226 leukemia) [µM] | TGI (SK-MEL-28 melanoma) [µM] | TGI (TK-10 renal) [µM] | TGI (MALME-3M melanoma) [µM] | TGI (SK-OV-3 ovarian) [µM] | TGI (SNB-19 CNS) [µM] | TGI (SR leukemia) [µM] | TGI (SW-620 colon) [µM] | TGI (PC-3 prostate) [µM] | TGI (MDA-N) [µM] | TGI (K-562 leukemia) [µM] | TGI (SF-539 CNS) [µM] | TGI (HOP-92 NSCLC) [µM] | TGI (IGROV1 ovarian) [µM] | TGI (EKVX NSCLC) [µM] | TGI (NCI-H226 lung) [µM] | TGI (HT29 colon) [µM]
1 | N#CC1=C(Nc2ccccc2)SC=C(c2ccccc2)NC1=NCc1ccccc1 | > 100 | > 100 | > 100 | > 100 | > 100 | > 100 | > 100 | > 100 | > 100 | 59.1 | > 100 | > 100 | > 100 | 97.6 | > 100 |  |  |  |  | 
2 | CC(C)CC(NC(=O)C(CI)Cc1ccccc1)C(=O)Nc1ccccc1 (stereo not given) | > 100 | > 100 | > 100 | > 100 | > 100 | > 100 | > 100 | > 100 | > 100 | > 100 | > 100 | > 100 | > 100 | > 100 | > 100 | > 100 | > 100 | > 100 |  | 
3 | CC(O)CCCCC(O)CCC[C@H](O)[C@H]1CCC([C@H]2CCC([C@@H](O)CCCCCCCCCCCCC3=C[C@H](C)OC3=O)O2)O1 (stereo not given in full) | 23.2 | 21 | 18.5 |  | 23.9 | 19.6 |  | 22.1 | 20.2 | 20.5 | 23.4 | 21.2 | 22 |  | 20.6 | 21.6 | 21.1 | 17.4 | 19.5 | 20.7
4 | O=c1cc(CO)oc(C(O)c2ccccc2)c1O (stereo not given) | > 100 | > 100 | > 100 | > 100 | > 100 | > 100 | > 100 | > 100 | > 100 | > 100 | > 100 | > 100 | > 100 |  | > 100 | > 100 | > 100 |  | > 100 | > 100
5 | CCCCCC(=O)CCCCCCCC(O)CC(=O)OCC (stereo not given) | > 100 |  | > 100 | > 100 | > 100 | > 100 | > 100 |  | > 100 | > 100 | > 100 | > 100 | > 100 | > 100 | > 100 | > 100 | > 100 |  | > 100 | > 100
6 | O=C(N[C@@H](c1ccccc1)[C@@H](O)C(=O)OCc1ccc([N+](=O)[O-])cc1)c1ccccc1 | > 100 | > 100 | > 100 |  |  | > 100 | > 100 | > 100 | > 100 |  | > 100 | > 100 | > 100 | > 100 | > 100 | > 100 | > 100 | > 100 | > 100 | > 100
7 | CC(=O)O[C@H]1CCC2[C@@H]3CCC4Nc5oncc5C[C@]4(C)C3CC[C@@]21C (stereo not given in full) | > 10 |  | > 10 | > 10 | > 10 | > 10 | > 10 | > 10 | > 10 | > 10 | > 10 | > 10 | > 10 | > 10 | 9.84 | > 10 | > 10 |  | > 10 | > 10
8 | COc1ccc2[nH]c3c(c2c1)CC(=S)N1CCCC(CC3=O)C1 (stereo not given) | > 100 | > 100 | > 100 | > 100 | > 100 | > 100 | > 100 | > 100 | > 100 |  | > 100 | > 100 | > 100 |  |  | > 100 | > 100 | > 100 | > 100 | > 100
9 | O=C(c1cccs1)N(C(=O)N1CCN(c2ccccc2)CC1)S(=O)(=O)c1ccccc1 | 60.9 | 33.8 | 70.6 |  | 56.3 | > 100 | 42.1 | > 100 | 72.2 | 49.3 | > 100 | 94.6 | 41.8 | 80.5 | 35.2 | 55.6 |  | 42.3 | 53.8 | > 100
10 | CC(=O)O[C@H]1CC[C@@]2(C)C(=CC[C@@H]3[C@@H]2CC[C@]2(C)NC(=O)/C(=C\c4ccccc4)C[C@@H]32)C1 | 48 | 33.1 | 33.2 | 64.2 | 32.3 | 80.5 | 36.2 | 44.3 | 31.8 | > 100 | 41.9 | 44.5 | 42.6 | > 100 | 31.1 |  | 42 | 34.8 | 40.8 | 31.2
11 | CCC(=O)O[C@H]1CC[C@H]2[C@@H]3CCC4=C/C(=N/OC(=O)c5cccc6c(=O)c7ccccc7[nH]c56)CC[C@]4(C)[C@H]3CC[C@]12C |  | > 100 | 99.6 | 54.7 | > 100 | > 100 |  | > 100 | > 100 | > 100 | > 100 | > 100 | > 100 | 47 | 39.3 | 74.5 | 77.6 | > 100 | > 100 | > 100
12 | Cc1cc(C)c2c(c1)C/C(=C\c1ccccc1C(=O)O)C2=O | > 100 |  |  | > 100 | > 100 | > 100 | > 100 |  | > 100 | > 100 | > 100 | > 100 | > 100 | > 100 | > 100 | > 100 | > 100 | > 100 | > 100 | > 100
13 | O=C1c2cccc3cccc(c23)C2NCCCN12 (stereo not given) | > 100 | > 100 | > 100 |  | > 100 | > 100 | > 100 | > 100 | > 100 | > 100 | > 100 | > 100 | > 100 | > 100 |  | > 100 | > 100 | > 100 | > 100 | > 100
14 | Cn1c(=O)oc2cc(C(O)CN3CCN(Cc4ccccn4)CC3)c(Cl)cc21 (stereo not given) | > 100 | > 100 | > 100 |  | > 100 | > 100 | > 100 | > 100 | > 100 | > 100 | > 100 | > 100 | > 100 | > 100 | > 100 | > 100 | > 100 | > 100 | > 100 | > 100
15 | O=C(/C=C/c1ccc(OCc2cccc(Cl)c2)cc1)NO | 40.8 | 27.9 | 53.3 | 44.8 | > 100 | 67.1 |  | 49.3 | 60.7 | 11.3 | > 100 | 47.4 | 44.5 | > 100 | > 100 | 33.8 | 38 | > 100 | 35.6 | 28.2
16 | CC(C)N(C(=O)C1(O)c2ccccc2C=Cc2ccccc21)C(C)C | 33.1 | 29.5 | > 100 | > 100 | 31.4 | 31.9 | 31.5 | 53.9 | 44.4 | 63 | 31.3 | 28.9 | 37.9 |  | 33.4 |  | 28.8 | 32.5 | 35.8 | 33.5
17 | Cc1c(O)c(OC2OC(CO)C(O)C(O)C2O)cc2c1CC[C@@H]1C2(C)C(=O)C[C@]2(C)[C@@H]([C@@](C)(O)C(=O)CCC(C)(C)O)[C@H](O)C[C@@]12C (stereo not given in full) | > 100 | > 100 | > 100 |  | > 100 | > 100 | > 100 | > 100 | > 100 | > 100 | > 100 | > 100 | > 100 | > 100 | > 100 | > 100 | > 100 | > 100 | > 100 | > 100
18 | COc1ccc(CC2c3cc(OC)c(OC)cc3CC[N+]2(C)C)cc1OC (stereo not given) | > 100 | > 100 | > 100 | > 100 | > 100 | > 100 | > 100 | > 100 | > 100 |  | > 100 | > 100 | > 100 | > 100 | > 100 | > 100 | > 100 | > 100 | > 100 | > 100
19 | Cc1nc2ccc(NC(=S)Nc3ccccc3)cc2c(=O)n1-c1ccccc1 | > 100 | > 100 | > 100 | 94.6 | > 100 | > 100 | > 100 |  | > 100 | > 100 | > 100 | > 100 | > 100 | > 100 |  |  | > 100 | > 100 | > 100 | > 100
20 | CCOC(=O)CO/N=C1/C(c2c(O)[nH]c3ccccc23)=Nc2ccccc21 | > 100 | > 100 | > 100 | > 100 | > 100 | > 100 | > 100 | 49.2 | 89.4 |  | > 100 | > 100 | > 100 | > 100 | > 100 | 63.3 | 79.2 | > 100 |  | > 100
21 | Cc1cc(C2CC(O)C(CO)O2)c(F)cc1F (stereo not given) | > 100 | > 100 | > 100 |  | > 100 | > 100 | > 100 | > 100 | > 100 | > 100 | > 100 | > 100 | > 100 | > 100 | > 100 | > 100 | > 100 | > 100 | > 100 | > 100
22 | CCCCCCCCCCCCC/C=C/[C@@H](O)[C@H](COC1OC(CO)C(OC2OC(CO)C(O)C(OC3(C(=O)O)CC(O)C(NC(C)=O)C(C(O)C(O)CO)O3)C2O)C(O)C1O)N=[N+]=[N-] (stereo not given in full) | > 100 | 37.1 | > 100 | > 100 | 60.5 | > 100 | 55.5 | 78.8 | 93.7 |  | 61.7 | 59.4 | > 100 | 60.6 | 31.9 | > 100 | 85.5 | > 100 | 45.9 | 58.5
23 | Cc1cc(C)c(C(=O)c2nnc3ccccc3c2N)c(C)c1 | 84 | 62.1 | 56.3 | > 100 | 56.7 |  |  | > 100 | > 100 | > 100 | > 100 | 56.9 | 52.6 |  |  | 52.9 | 46.7 |  | 49.7 | 76.8
24 | COC(=O)C1(C(=O)OC)C/C(C)=C(/C)SCCCS1 | > 100 | > 100 | > 100 |  | > 100 | > 100 | > 100 | > 100 | > 100 | > 100 | > 100 | > 100 | > 100 | > 100 | > 100 | > 100 | > 100 | > 100 | > 100 | > 100
25 | O=C(O)c1nc2ccc(C(F)(F)F)cc2nc1NCc1ccc(F)cc1 | > 100 | 35.1 | > 100 | > 100 | > 100 |  |  | 93 | > 100 | 42 | > 100 | 82.6 | 76.9 | 55.6 | 43.5 | 45.3 | > 100 | 68.3 | > 100 | 
